Test results from patent US20070167412A1, “HALOCOMBSTATINS AND METHODS OF SYNTHESIS THEREOF” (ARIZONA BOARD OF REGENTS, priority 2003, published 2007).

Key:
Assay type in all cases: cell-based
Breast MCF-7 = test: human cancer cell growth inhibition, sulforhodamine B assay; details: 48 hours; for human cancer cell line growth inhibition (GI50) Breast MCF-7: Table Ia
Procedure: (§1) Inhibition of human cancer cell growth was assessed using the National Cancer Institute's standard sulforhodamine B assay. After 48 hours, the plates were fixed with trichloracetic acid, stained with sulforhodamine B and read with an automated microplate reader. […] Inhibition of the mouse leukemia P388 cells was assessed in a 10% horse serum/Fisher medium soution for 24 hours, followed by a 48 hour incubation with serial dilutions of the compounds. Cell growth inhibition (ED50) was then calculated using a Z1 Becleman/Coulter particle counter.

CNS SF268 = test: as above; details: 48 hours; for human cancer cell line growth inhibition (GI50) CNS SF268: Table Ia
Procedure: as §1

Colon KM20L2 = test: as above; details: 48 hours; for human cancer cell line growth inhibition (GI50) Colon KM20L2: Table Ia
Procedure: as §1

Lung-NSC NCI-H460 = test: as above; details: 48 hours; for human cancer cell line growth inhibition (GI50) Lung-NSC NCI-H460: Table Ia
Procedure: as §1

Pancreas BXPC-3 = test: as above; details: 48 hours; for human cancer cell line growth inhibition (GI50) Pancreas BXPC-3: Table Ia
Procedure: as §1

Prostate DU-145 = test: as above; details: 48 hours; for human cancer cell line growth inhibition (GI50) Prostate DU-145: Table Ia
Procedure: as §1

Candida albicans = test: reference broth microdilution susceptibility assay
Source text: (§2) The halocombstatins of the present invention appear to also have antimicrobial properties. More specifically, they appear to have antifungal and/or antibacterial properties. Antimicrobial evaluation of the halocombstatins involved susceptibility testing performed by the reference broth microdilution assay. The antimicrobial activities of the halocombstatins were very similar, targeting Gram-positive bacteria and the pathogenic fungi Cryptococcus neoformans, and results are shown in Table III.
(§3) (See Pettit, G. R., et al., Antineoplastic Agents 463. Synthesis of Combretastatin A-3 Diphosphates, Anticancer Drug Design 2000, 15, 397-404.) To determine the antimicrobial activity of the present compounds, susceptibility testing was performed by the reference broth microdilution assay. (See National Committee for Clinical Laboratory Standards. Methods for Dilution Antimicrobial Susceptibility Tests for Bacteria that Grow Aerobically. Approved Standard M7-A5. Wayne, P A: NCCLS, 2000. National Committee for Clinical Laboratory Standards. Reference Method for Broth Dilution Antifungal Susceptibility Testing of Yeasts. Aproved Standard M27-A. Wayne, P A: NCCLS, 1997.) The antimicrobial activities of the halocombretastatins of the present invention were very similar, targeting Gram-positive bacteria and Cryptococcus neoformans. This is illustrated in further detail in Table III. Thus, several of the novel compounds of the present invention appear to have potential as antimicrobial agents, such as antifingals and antibacterials.

Cryptococcus neoformans = test: reference broth microdilution susceptibility assay
Source text: as §2, §3

Enterobacter cloacae = test: reference broth microdilution susceptibility assay
Source text: as §2, §3

Enterococcus faecalis = test: reference broth microdilution susceptibility assay
Source text: as §2, §3

Escherichia coli = test: reference broth microdilution susceptibility assay
Source text: as §2, §3

Micrococcus luteus = test: reference broth microdilution susceptibility assay
Source text: as §2, §3

Neisseria gonorrhoeae = test: reference broth microdilution susceptibility assay
Source text: as §2, §3

Staphylococcus aureus = test: reference broth microdilution susceptibility assay
Source text: as §2, §3

[1] = test system: Stenotrophomonas maltophilia; test: reference broth microdilution susceptibility assay
Source text: as §2, §3

Streptococcus pneumoniae = test: reference broth microdilution susceptibility assay
Source text: as §2, §3

| Compound | human cancer cell line growth inhibition (GI50) Breast MCF-7 (Breast MCF-7) | human cancer cell line growth inhibition (GI50) CNS SF268 (CNS SF268) | human cancer cell line growth inhibition (GI50) Colon KM20L2 (Colon KM20L2) | human cancer cell line growth inhibition (GI50) Lung-NSC NCI-H460 (Lung-NSC NCI-H460) | human cancer cell line growth inhibition (GI50) Pancreas BXPC-3 (Pancreas BXPC-3) | human cancer cell line growth inhibition (GI50) Prostate DU-145 (Prostate DU-145) | other results |
| --- | --- | --- | --- | --- | --- | --- | --- |
| 3-Brombo-4,4′,5-trimethoxy-3′-hydroxy-E-stilbene [Compound 13b] | – | – | – | – | – | – | Human cancer cell line inhibition (GI50) Breast adn MCF-7 (Breast MCF-7; Table I): 0.14 µg/mL; Human cancer cell line inhibition (GI50) CNS SF268 (CNS SF268; Table I): 0.18 µg/mL; Human cancer cell line inhibition (GI50) Colon KM20L2 (Colon KM20L2; Table I): 1.2 µg/mL; Human cancer cell line inhibition (GI50) Lung-NSC NCI-H460 (Lung-NSC NCI-H460; Table I): 0.15 µg/mL; Human cancer cell line inhibition (GI50) Pancreas-a BXPC-3 (Pancreas BXPC-3; Table I): 1.6 µg/mL; Human cancer cell line inhibition (GI50) Prostate DU-145 (Prostate DU-145; Table I): 0.13 µg/mL; Range of minimum inhibitory concentration, Candida albicans (Candida albicans; Table III): * (no inhibition at 64 μg/ml); Range of minimum inhibitory concentration, Cryptococcus neoformans (Cryptococcus neoformans; Table III): * (no inhibition at 64 μg/ml); Range of minimum inhibitory concentration, Enterobacter cloacae (Enterobacter cloacae; Table III): * (no inhibition at 64 μg/ml); Range of minimum inhibitory concentration, Enterococcus faecalis (Enterococcus faecalis; Table III): * (no inhibition at 64 μg/ml); Range of minimum inhibitory concentration, Escherichia coli (Escherichia coli; Table III): * (no inhibition at 64 μg/ml); Range of minimum inhibitory concentration, Micrococcus luteus (Micrococcus luteus; Table III): * (no inhibition at 64 μg/ml); Range of minimum inhibitory concentration, Neisseria gonorrhoeae (Neisseria gonorrhoeae; Table III): * (no inhibition at 64 μg/ml); Range of minimum inhibitory concentration, Staphylococcus aureus (Staphylococcus aureus; Table III): * (no inhibition at 64 μg/ml); Range of minimum inhibitory concentration, Stenotrophomonas maltophilia ([1]; Table III): * (no inhibition at 64 μg/ml); Range of minimum inhibitory concentration, Streptococcus pneumoniae (Streptococcus pneumoniae; Table III): * (no inhibition at 64 μg/ml) |
| COc1ccc(/C=C\c2cc(I)c(OC)c(I)c2)cc1OP(=O)([O-])[O-].[Na+].[Na+] [Compound 0] | – | – | – | – | – | – | Range of MIC, Candida albicans (Candida albicans; Table VII, ATCC 90028): * (no inhibition at 64 μg/ml); Range of MIC, Cryptococcus neoformans (Cryptococcus neoformans; Table VII, ATCC 90112): * (no inhibition at 64 μg/ml); Range of MIC, Enterobacter cloacae (Enterobacter cloacae; Table VII, ATCC 13047): * (no inhibition at 64 μg/ml); Range of MIC, Enterococcus faecalis (Enterococcus faecalis; Table VII, ATCC 29212): * (no inhibition at 64 μg/ml); Range of MIC, Escherichia coli (Escherichia coli; Table VII, ATCC 25922): * (no inhibition at 64 μg/ml); Range of MIC, Micrococcus luteus (Micrococcus luteus; Table VII, Presque Isle 456): * (no inhibition at 64 μg/ml); Range of MIC, Neisseria gonorrhoeae (Neisseria gonorrhoeae; Table VII, ATCC 49226): 32 to 64 µg/mL; Range of MIC, Staphylococcus aureus (Staphylococcus aureus; Table VII, ATCC 29213): * (no inhibition at 64 μg/ml); Range of MIC, Stenotrophomonas maltophilia ([1]; Table VII, ATCC 13637): * (no inhibition at 64 μg/ml); Range of MIC, Streptococcus pneumoniae (Streptococcus pneumoniae; Table VII, ATCC 6303): * (no inhibition at 64 μg/ml) |
| C1COCCN1.C1COCCN1.COc1ccc(/C=C\c2cc(I)c(OC)c(I)c2)cc1OP(=O)(O)O [V] | 0.066 µg/mL | 0.054 µg/mL | >1 µg/mL | 0.033 µg/mL | 0.35 µg/mL | 0.028 µg/mL | – |
| C1CCNCC1.C1CCNCC1.COc1ccc(/C=C\c2cc(I)c(OC)c(I)c2)cc1OP(=O)(O)O [W] | 0.070 µg/mL | 0.041 µg/mL | >1 µg/mL | 0.025 µg/mL | 0.33 µg/mL | 0.025 µg/mL | – |
| COC(=O)CN.COC(=O)CN.COc1ccc(/C=C\c2cc(I)c(OC)c(I)c2)cc1OP(=O)(O)O [X] | 0.10 µg/mL | 0.054 µg/mL | >1 µg/mL | 0.030 µg/mL | 0.36 µg/mL | 0.023 µg/mL | – |
| COC(=O)C(N)Cc1c[nH]c2ccccc12.COC(=O)C(N)Cc1c[nH]c2ccccc12.COc1ccc(C=Cc2cc(I)c(OC)c(I)c2)cc1OP(=O)(O)O [Y] | 0.22 µg/mL | 0.086 µg/mL | >1 µg/mL | 0.033 µg/mL | 0.37 µg/mL | 0.026 µg/mL | – |
| COc1ccc(/C=C\c2cc(I)c(OC)c(I)c2)cc1OP(=O)(O)O.NC(CO)(CO)CO.NC(CO)(CO)CO [Z] | 0.047 µg/mL | 0.040 µg/mL | 0.94 µg/mL | 0.025 µg/mL | 0.33 µg/mL | 0.021 µg/mL | – |
